# Laboratory results: paper PMC6630796, “Spiroindolone Analogues as Potential Hypoglycemic with Dual Inhibitory Activity on α-Amylase and α-Glucosidase” (Molecules, 2019)
# How the values were obtained:
# [1] = target: T1, α-amylase from Aspergillus oryzae (Aspergillus oryzae, UniProt P0C1B3); experiment: biochemical; conditions: for α-Amylase Selectivity: IC50 (α-glucosidase)/IC50 (α-amylase)
# T1 construct: purchased Sigma Aldrich
# Method: Briefly, 250 μL (0.4 mg/mL) of sample was preincubated with 250 μL of α-amylase solution for 10 min at 25 °C in one set of tubes. In another set of tubes α-amylase was preincubated with 250 μL of phosphate buffer (pH 6.9). 250 μL of starch solution at increasing concentrations (0.2–1% (w/v)) was added to both sets of reaction mixtures to start the reaction. The mixture was then incubated for 10 min at 25 °C and then boiled for 15 min after the addition of 250 μL of DNS to stop the reaction. The amount of reducing sugars released was determined spectrophotometrically using a maltose standard curve and converted to reaction velocities.
# (§1) The inhibitory concentration 50% (IC50) values were determined from the plots of percent inhibition versus log inhibitor concentration and calculated by logarithmic regression analysis from the mean inhibitory values.
# [2] = target: T2, α-Glucosidase type 1 from baker’s yeast (Saccharomyces cerevisiae, UniProt P53341); experiment: α-Glucosidase inhibition assay (p-nitrophenyl α-D-glucopyranoside, 405 nm); format: biochemical; conditions: for α-Glucosidase Selectivity: IC50 (α-amylase)/IC50 (α-glucosidase)
# T2 construct: purchased Sigma-Aldrich G5003
# T2 sequence (P53341 whole entry): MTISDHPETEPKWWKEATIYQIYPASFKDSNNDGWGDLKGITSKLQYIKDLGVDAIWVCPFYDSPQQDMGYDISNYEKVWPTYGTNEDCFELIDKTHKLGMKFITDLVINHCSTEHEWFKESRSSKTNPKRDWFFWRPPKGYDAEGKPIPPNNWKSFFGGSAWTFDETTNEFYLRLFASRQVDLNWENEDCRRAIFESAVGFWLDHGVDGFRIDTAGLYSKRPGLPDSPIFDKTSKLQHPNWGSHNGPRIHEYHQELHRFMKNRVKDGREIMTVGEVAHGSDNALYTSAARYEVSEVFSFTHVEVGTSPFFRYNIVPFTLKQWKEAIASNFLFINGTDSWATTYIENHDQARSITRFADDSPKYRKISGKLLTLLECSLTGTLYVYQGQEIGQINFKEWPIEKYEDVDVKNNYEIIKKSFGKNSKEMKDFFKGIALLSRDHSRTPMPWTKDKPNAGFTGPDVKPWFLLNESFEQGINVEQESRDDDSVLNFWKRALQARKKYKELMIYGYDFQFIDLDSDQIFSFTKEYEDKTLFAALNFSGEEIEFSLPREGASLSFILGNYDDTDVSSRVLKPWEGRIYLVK
# Method: Sodium phosphate buffer (0.1 M) was adjusted by 0.1 N HCl to pH 7.0 with a pH meter (Thermo Fisher Scientific Inc., Waltham, MA, USA). p-Nitrophenyl α-D-glucopyranoside (10 mM) and α-glucosidase solutions (1 U/mL) were solubilized in 0.1 M sodium phosphate buffer (pH 7.0). All the reagents were manufactured shortly before use and warmed to 37 °C in a water bath. Sodium phosphate buffer (0.1 M, 158 μL per well) was added to a 96-well plate. α-Glucosidase (20 μL) and 2 μL of sample were added to 20 μL of p-nitrophenyl α-D-glucopyranoside. In the 200-μL final reaction volume (0.02 U/well, 0.1 U/mL) the substrate concentration was adjusted to […]. The background signal due to the sample color was measured at 405 nm with the PerkinElmer Wallac Victor3 spectrophotometer (PerkinElmer, Waltham, MA, USA) prior to adding the enzyme. Immediately following α-glucosidase addition, absorbance was measured at 405 nm 8 times at 1 min intervals.
# as §1
melting point,SMILES,IC50 [1],α-Amylase Selectivity [1],IC50 [2],α-Glucosidase Selectivity [2]
120 to 122 °C,"O=C(c1ccccc1)C1C(c2cc3ccccc3o2)C2C3CCCCC3CN2[C@@]12C(=O)Nc1ccc(Cl)cc12 (stereo partly drawn) [Compound 5b, (3S)-1′-(Benzofuran-2-yl)-2′-benzoyl-5-chloro-1′,2′,5′,5a′,6′,7′,8′,9′,9a′,9b′-decahydrospiro[indoline-3,3′-pyrrolo[2,1-a]isoindol]-2-one]",,,,
125 to 127 °C,"O=C(c1ccc(F)cc1)C1C(c2cc3ccccc3o2)C2C3CCCCC3CN2[C@@]12C(=O)Nc1ccc(Cl)cc12 (stereo partly drawn) [Compound 5d, (3S)-1′-(benzofuran-2-yl)-5-chloro-2′-(4-fluorobenzoyl)-1′,2′,5′,5a′,6′,7′,8′,9′,9a′,9b′-decahydrospiro-[indoline-3,3′-pyrrolo[2,1-a]isoindol]-2-one]",,,,
125 to 127 °C,"O=C(c1ccc(F)cc1)C1C(c2cc3ccccc3o2)C2C3CCCCC3CN2[C@@]12C(=O)Nc1ccc(Br)cc12 (stereo partly drawn) [Compound 5e, (3S)-1′-(Benzofuran-2-yl)-5-bromo-2′-(4-fluorobenzoyl)-1′,2′,5′,5a′,6′,7′,8′,9′,9a′,9b′-decahydrospiro-[indoline-3,3′-pyrrolo[2,1-a]isoindol]-2-one]",,,,
120 to 121 °C,"O=C(c1ccc(Br)cc1)C1C(c2cc3ccccc3o2)C2C3CCCCC3CN2[C@@]12C(=O)Nc1ccc(Cl)cc12 (stereo partly drawn) [Compound 5f, (3S)-1′-(Benzofuran-2-yl)-2′-(4-bromobenzoyl)-5-chloro-1′,2′,5′,5a′,6′,7′,8′,9′,9a′,9b′-decahydrospiro-[indoline-3,3′-pyrrolo[2,1-a]isoindol]-2-one]",,,,
137 to 138 °C,"O=C(c1ccc(F)cc1)C1C(c2cc3ccccc3o2)C2C3CCCCC3CN2[C@@]12C(=O)Nc1ccccc12 (stereo partly drawn) [Compound 5m, (3S)-1′-(Benzofuran-2-yl)-2′-(4-fluorobenzoyl)-1′,2′,5′,5a′,6′,7′,8′,9′,9a′,9b′-decahydrospiro[indoline-3,3′-pyrrolo[2,1-a]isoindol]-2-one]",,,,
118 to 120 °C,"O=C(c1ccc(Br)cc1)C1C(c2cc3ccccc3o2)C2C3CCCCC3CN2[C@@]12C(=O)Nc1ccccc12 (stereo partly drawn) [Compound 5n, (3S)-1′-(Benzofuran-2-yl)-2′-(4-bromobenzoyl)-1′,2′,5′,5a′,6′,7′,8′,9′,9a′,9b′-decahydrospiro[indoline-3,3′-pyrrolo[2,1-a]isoindol]-2-one]",,,,
125 to 126 °C,"O=C(c1ccc(Cl)cc1)C1C(c2cc3ccccc3o2)C2C3CCCCC3CN2[C@@]12C(=O)Nc1ccc(Cl)cc12 (stereo partly drawn) [Compound 5o, (3S)-1′-(Benzofuran-2-yl)-5-chloro-2′-(4-chlorobenzoyl)-1′,2′,5′,5a′,6′,7′,8′,9′,9a′,9b′-decahydrospiro-[indoline-3,3′-pyrrolo[2,1-a]isoindol]-2-one]",,,,

SMILES,melting point,IC50 [1],α-Amylase Selectivity [1],IC50 [2],α-Glucosidase Selectivity [2]
"O=C(c1ccccc1)C1C(c2cc3ccccc3o2)C2CSCN2[C@@]12C(=O)Nc1ccc(Cl)cc12 (stereo partly drawn) [Compound 5a, (3S)-7′-(Benzofuran-2-yl)-6′-benzoyl-5-chloro-1′,6′,7′,7a′-tetrahydro-3′H-spiro[indoline-3,5′-pyrrolo[1,2-c]thiazol]-2-one]",132 to 133 °C,693.22 ± 0.1 µM,0.67,465.12 ± 0.12 µM,1.49
"O=C(c1ccc(F)cc1)C1C(c2cc3ccccc3o2)C2CSCN2[C@@]12C(=O)Nc1ccc(Cl)cc12 (stereo partly drawn) [Compound 5c, (3S)-7′-(Benzofuran-2-yl)-5-chloro-6′-(4-fluorobenzoyl)-1′,6′,7′,7a′-tetrahydro-3′H-spiro[indoline-3,5′-pyrrolo[1,2-c]thiazol]-2-one]",110 to 112 °C,718 ± 0.27 µM,0.81,585.11 ± 0.02 µM,1.22
"O=C(c1ccc(Br)cc1)C1C(c2cc3ccccc3o2)C2CSCN2[C@@]12C(=O)Nc1ccc(Br)cc12 (stereo partly drawn) [Compound 5h, (3S)-7′-(Benzofuran-2-yl)-5-bromo-6′-(4-bromobenzoyl)-1′,6′,7′,7a′-tetrahydro-3′H-spiro[indoline-3,5′-pyrrolo[1,2-c]thiazol]-2-one]",118 to 120 °C,589.04 ± 0.25 µM,0.83,494.1 ± 0.04 µM,1.19
"O=C(c1ccc(Br)cc1)C1C(c2cc3ccccc3o2)C2CSCN2[C@@]12C(=O)Nc1ccc(Cl)cc12 (stereo partly drawn) [Compound 5i, (3S)-7′-(Benzofuran-2-yl)-6′-(4-bromobenzoyl)-5-chloro-1′,6′,7′,7a′-tetrahydro-3′H-spiro[indoline-3,5′-pyrrolo[1,2-c]thiazol]-2-one]",144 to 145 °C,779.08 ± 0.51 µM,0.87,684.12 ± 0.35 µM,1.13
"O=C(c1ccc(C(F)(F)F)cc1)C1C(c2cc3ccccc3o2)C2CSCN2[C@@]12C(=O)Nc1ccc(Cl)cc12 (stereo partly drawn) [Compound 5l, (3S)-7′-(Benzofuran-2-yl)-5-chloro-6′-(4-(trifluoromethyl)benzoyl)-1′,6′,7′,7a′-tetrahydro-3′H-spiro-[indoline-3,5′-pyrrolo[1,2-c]thiazol]-2-one]",110 to 112 °C,558.07 ± 0.18 µM,0.74,414.1 ± 0.52 µM,
"O=C(c1ccc(Cl)cc1)C1C(c2cc3ccccc3o2)C2CSCN2[C@@]12C(=O)Nc1ccc(Cl)cc12 (stereo partly drawn) [Compound 5p, (3S)-7′-(Benzofuran-2-yl)-5-chloro-6′-(4-chlorobenzoyl)-1′,6′,7′,7a′-tetrahydro-3′H-spiro[indoline-3,5′-pyrrolo[1,2-c]thiazol]-2-one]",105 to 106 °C,488 ± 1.11 µM,0.80,392.1 ± 1.07 µM,1.24
